{"source": "patent US9855277B2", "about": "“Use of 5H-dibenz/b,f/azepine-5-carboxamide derivatives for treating fibromyalgia” (BIAL—PORTELA & CA, S.A., priority 2009, dated 2018)", "assay_type_in_all_cases": "in vivo", "key": {"[1]": {"assay": "Plasma bioanalysis in CCI mice after oral ESL", "details": "oral ESL 50-200 mg/kg"}, "[2]": {"system": "Mice (NMRI)", "assay": "Formalin paw test", "details": "300 mg/kg p.o.", "protocol": "The method, which detects analgesic activity, follows that described by Wheeler-Aceto et al (see […]-ACETO, H. & A., C. (1991), “Standardization of the rat paw formalin test for the evaluation of analgesics”, Psychopharmacology, 104, 35-44). Mice (NMRI) were given an intraplantar injection of 5% formalin (25 μl) into the posterior left paw. […] The time spent licking was counted for 15 minutes, beginning 15 minutes after injection of formalin. 10 mice were studied per group. The test was performed blind. ESL and carbamazepine (CBZ) were tested at the doses of 10, 30, 100 and 300 mg/kg p.o., and oxcarbazepine (OXC) and R-Lic were tested at the doses of 100 and 300 mg/kg p.o., administered 60 minutes before the test (i.e. 45 minutes before formalin), and compared with a vehicle control group in each experiment. Morphine (64 mg/kg p.o.), administered under the same experimental conditions, was used as reference substance."}, "[3]": {"system": "mice with chronic constriction nerve injury (CCI)", "assay": "Paw withdrawal threshold (von Frey filaments) in CCI mice", "details": "gabapentin 100 mg/kg p.o.", "protocol": "The materials used were (as also indicated in FIGS. 1 and 2): • Vehicle: 0.5% hydroxy-propyl-methyl-cellulose (HPMC) in water, 5 ml/kg, p.o.; • 50 mg/kg, 100 mg/kg, 150 mg/kg and 200 mg/kg: ESL at 50, 100, 150 and 200 mg/kg, p.o.; • GP 100 mg/kg: gabapentin 100 mg/kg, p.o.\nThe potential analgesic effects of orally dosed ESL was investigated at doses of 50, 100, 150 and 200 mg/kg, on the paw withdrawal threshold (PWT) and these effects compared with those of the dose vehicle and gabapentin, the latter at 100 mg/kg, in a mouse model of chronic constriction nerve injury (CCI).\nEach animal received a single oral dose of either ESL (50, 100, 150, or 200 mg/kg), or gabapentin (100 mg/kg in saline) or vehicle (5 ml/kg). Behavioural testing was then performed twice, at approximately 60 and 120 minutes post-dose, to investigate the effect of treatments."}}, "data": [{"smiles": "NC(=O)N1c2ccccc2C[C@H](O)c2ccccc21", "note": "[eslicarbazepine]", "values": [{"measurement": "plasma concentrations vs dose of ESL", "setting": "[1]", "result": "positively correlated with the doses of ESL administered"}]}, {"smiles": "NC(=O)N1c2ccccc2C=Cc2ccccc21", "note": "[CBZ, carbamazepine, reference compound]", "values": [{"measurement": "licking in the formalin test at 300 mg/kg", "setting": "[2]", "result": "abolished licking"}]}, {"smiles": "NCC1(CC(=O)O)CCCCC1", "note": "[gabapentin, reference compound]", "values": [{"measurement": "PWT in the contralateral limbs vs vehicle group", "setting": "[3]; 2 hour after dosing, P<0.05", "result": "significantly higher"}, {"measurement": "PWT", "setting": "[3]; positive control", "result": "significantly increased PWT"}]}]}
